Results published in article PMC6736360, “P-Glycoprotein–Mediated Efflux Reduces the In Vivo Efficacy of a Therapeutic Targeting the Gastrointestinal Parasite Cryptosporidium” (The Journal of Infectious Diseases, 2019).
Entries after “also recorded” stand apart in the source; their conditions may differ. Where two headings read alike, the source gives them in different places.

Experiments:
[1] = Mouse gastrointestinal tissue pharmacokinetics; format: in vivo, mice; conditions: for AUC(0-t) / Cmax / Tmax: mouse, po
Protocol: At multiple time points following BKI1318 administration, mice were euthanized, and the GI tract was separated into segments corresponding to the duodenum, jejunum, ileum, and cecum/colon. […] At 0.5, 1, 2, 4, 8, and 12 hours, three mice in each group were sacrificed by cervical dislocation, and the duodenum, jejunum, ileum, and cecum/ascending colon were immediately collected. Each section of the GI tract was flushed with Dulbecco's phosphate-buffered saline, weighed, and placed in storage at -80°C. On the day of homogenization, 0.9% NaCl was added to each sample to achieve 200 mg/mL tissue concentration. Samples were homogenized using a handheld motorized homogenizer (Fisher Scientific, Waltham, MA) on ice and stored at -20°C until extraction and analysis. To report tissue concentrations, 1 gram of tissue was estimated to be 1 mL of volume.

Caco-2 cells = assay: Caco-2 trans-well apparent permeability assay; format: in vitro ADME; conditions: Caco-2
Protocol: To initially characterize the permeability of BKIs 1294, 1369, and 1318, the software MedChem Designer (Simulations +, Lancaster, CA) was used to predict the Peff. The in vitro apparent permeability (Papp) was carried out by Absorption Systems LP (Exton, PA) with a Caco-2 trans-well assay. Caco-2 cells (clone C2BBe1) were obtained from American Type Culture Collection (Manassas, VA) were grown to confluence on collagen-coated, microporous membranes in 12-well assay plates. The permeability assay buffer was Hanks’ balanced salt solution (HBSS) containing 10 mM HEPES and 15 mM glucose at a pH of 7.4. The buffer in the receiver chamber also contained 1% bovine serum albumin. The dosing solution concentration was 5 µM BKI in assay buffer, and the cell monolayers were dosed on the apical side (A?B) or basolateral side (B?A) and incubated at 37°C with 5% CO2 in a humidified incubator. After 120 minutes, samples were taken from the donor and receiver chambers in duplicate. The Papp was calculated with equation (1) and the percent recovery with equation (2).
Papp = (dCr/dt) × Vr/(A × CA) (1)
Percent Recovery = 100 × ((Vr × Cr^final) + (Vd × Cd^final))/(Vd × […]) (2)
where dCr/dt is the slope of the cumulative concentration in the receiver compartment versus time in µM s^-1; Vr is the volume of the receiver compartment in cm^3; Vd is the volume of the donor compartment in cm^3; A is the area of the insert (1.13 cm^2 for 12-well); CA is the average of the nominal dosing concentration and the measured 120 minute donor concentration in µM; CN is the nominal concentration of the dosing solution in µM; Cr^final is the cumulative receiver concentration in µM at the end of the incubation period; Cd^final is the concentration of the donor in µM at the end of the incubation period.
To ensure no damage was inflicted to the cell monolayers during the flux period, lucifer yellow flux was also measured post-experimentally for each monolayer. To determine whether BKIs 1294, 1369, and 1318 were substrates of P-gp in vitro, P-gp efflux was characterized using the Caco-2 permeability assay protocol with a few modifications. The dosing solution concentration was 5 μM of BKI in the assay buffer +/- 1 μM valspodar. Cells were first pre-incubated for 30 minutes with HBSS containing +/- 1 μM valspodar. Cell monolayers were dosed on the apical side (A?B) or basolateral side (B?A), and incubated at 37°C with 5% CO2 in a humidified incubator. Samples were taken from the donor and receiver chambers at 120 minutes. Each determination was performed in duplicate.

C. parvum [2] = assay: Hollow fiber in vitro Cryptosporidium culture with polarized HCT-8 cells; format: cell-based, Cryptosporidium parvum
Protocol: C. parvum was cultured using a hollow fiber bioreactor modified for evaluation of potential chemotherapeutic compounds [[21–23]]. Briefly, the system used a 20-kD MWCO polysulfone fiber cartridge (FiberCell Systems, Frederick, MD). HCT-8 cells were grown on the outer surface of the fibers (extracapillary space), and reservoirs were used to provide nutrients to the cells. When the glucose concentration decreased to at least 2 g/L, the extracapillary space was inoculated with 10^6C. parvum (Iowa isolate, Bunch Grass Farms, Deary, ID). […] Compound concentration was reduced over time by the flow of medium through the extracapillary and intracapillary spaces. Samples were removed from the extracapillary space once per day for evaluation of parasite numbers.
C. parvum growth was determined by analysis of the amount of C. parvum 18S-rRNA present and compared to the HCT-8 18S-rRNA as previously described^3. Briefly this was performed by centrifugation at 14,000 x g for 5 min of 0.5 mL samples collected from the extracapillary space (ECS). The pellet was resuspended in 100 µL of iScript buffer and subject to 6-freeze/thaw cycles comprising 1 min in liquid nitrogen followed by 1.5 min at 70 °C. The lysate was collected by centrifugation at 16,162 x g for 5 min, and the RNA purified according to the manufacturer’s instructions (iScriptTM, RT-qPCR sample preparation kit, Bio-Rad Laboratories). C. parvum was enumerated by quantitating the Cp18S-rRNA using the following specific forward and reverse primers - Cp18S-995F: 5’-[…]-3’ and Cp18S-1206R: 5’-[…]-3’ and compared to the human Hs18S-rRNA using the following primer sets - Hs18S-F1373: 5’-[…]-3’ and Hs18S-R1561: 5’-[…]-3’. The amount of 18S-rRNA was determined using 5 ng samples by RT-qPCR as described the manufacturer instructions using a Luna Universal One-Step® RT-qPCR kit (New England Biologics) and a Quant Studio 6 Flex 44 instrument. The cell number is calculated from the CT means using a set of standards prepared from 10^4, 10^5, and 10^6 C. parvum oocysts and compared to 10^4, 10^5, and 10^6 HCT-8 cells.

C. parvum [3] = tested on: C. parvum; set-up: method as in PMID 28329187; conditions: previously published study; cited from earlier work

In the case of CCOc1ccc2cc(-c3nn(CC4CCNCC4)c4ncnc(N)c34)ccc2n1 [BKI1318], the “Effect of elacridar on levels in the cecum/colon” value ([1]; mice, cecum/colon tissue) is reported as “did not significantly affect”, the “Increase of duodenum exposure when elacridar administered before” value ([1]; mice, duodenum tissue, P < .05) is reported as “approximately 2 fold” and the “Increase of ileum exposure when elacridar administered before” value ([1]; mice, ileum tissue, P < .05) is reported as “approximately 3 fold”. The “Increase of jejunum exposure when elacridar administered before” value ([1]; mice, jejunum tissue, P < .05) was “approximately 2 fold”, the AUC(0-t) ([1]; cecum/colon, 30 mg/kg, Cecum/Colon, BKI 1318 alone, read-out: AUC0-12) was 109 µM·h and the Cmax ([1]; cecum/colon, 30 mg/kg, Cecum/Colon, BKI 1318 alone, read-out: Observed Cmax) was 14.4 µM. For the same molecule, the Tmax ([1]; cecum/colon, 30 mg/kg, Cecum/Colon, BKI 1318 alone, read-out: Tmax) was 9.3 h, the AUC(0-t) ([1]; cecum/colon, Cecum/Colon, with elacridar, read-out: AUC0-12 w/ Elacridar) was 65.5 ± 4 µM·h and the Cmax ([1]; cecum/colon, Cecum/Colon, with elacridar, read-out: Cmax w/ Elacridar) was 8.2 ± 0.3 µM. The Tmax ([1]; cecum/colon, Cecum/Colon, with elacridar, read-out: Tmax w/ Elacridar) was 7.3 ± 4.1 h, the AUC(0-t) ([1]; duodenum, Duodenum, BKI 1318 alone, read-out: AUC0-12) was 235 µM·h and the Cmax ([1]; duodenum, Duodenum, BKI 1318 alone, read-out: Observed Cmax) was 77.2 µM. It also gave a Tmax ([1]; duodenum, Duodenum, BKI 1318 alone, read-out: Tmax) of 0.5 h, an AUC(0-t) ([1]; duodenum, Duodenum, with elacridar, P≤0.001, read-out: AUC0-12 w/ Elacridar) of 537 µM·h and a Cmax ([1]; duodenum, Duodenum, with elacridar, read-out: Cmax w/ Elacridar) of 110 µM. For the same molecule, the Tmax ([1]; duodenum, Duodenum, with elacridar, read-out: Tmax w/ Elacridar) was 0.7 ± 0.2 h, the AUC(0-t) ([1]; ileum, 30 mg/kg, Ileum, BKI 1318 alone, read-out: AUC0-12) was 336 µM·h and the Cmax ([1]; ileum, Ileum, BKI 1318 alone, read-out: Observed Cmax) was 79.8 µM. It also gave a Tmax ([1]; ileum, Ileum, BKI 1318 alone, read-out: Tmax) of 4.3 h, an AUC(0-t) ([1]; ileum, Ileum, with elacridar, P≤0.05, read-out: AUC0-12 w/ Elacridar) of 1150 µM·h and a Cmax ([1]; ileum, Ileum, with elacridar, read-out: Cmax w/ Elacridar) of 177 µM. The Tmax ([1]; ileum, Ileum, with elacridar, read-out: Tmax w/ Elacridar) was 2 h, the AUC(0-t) ([1]; jejunum, Jejunum, BKI 1318 alone, read-out: AUC0-12) was 279 µM·h and the Cmax ([1]; jejunum, Jejunum, BKI 1318 alone, read-out: Observed Cmax) was 108 µM. It also gave a Tmax ([1]; jejunum, Jejunum, BKI 1318 alone, read-out: Tmax) of 0.8 h, an AUC(0-t) ([1]; jejunum, Jejunum, with elacridar, P≤0.05, read-out: AUC0-12 w/ Elacridar) of 558 µM·h and a Cmax ([1]; jejunum, Jejunum, with elacridar, read-out: Cmax w/ Elacridar) of 98.1 µM. For the same molecule, the Tmax ([1]; jejunum, Jejunum, with elacridar, read-out: Tmax w/ Elacridar) was 1.8 ± 1.5 h, the “A → B Papp, fold lower than BKI1369 and BKI1294” value (Caco-2 cells) was “approximately 50 fold” and the “Effect on C. parvum levels/growth” value (C. parvum [2]; hollow fiber model, compound alone, 80 µM once daily) was “did not decrease; also recorded: no effect”. The “Effect on C. parvum levels with elacridar coadministered” value (C. parvum [2]; hollow fiber model, elacridar coadministered) was “reduced C. parvum levels by an order of magnitude” and the “Reduction in C. parvum levels with elacridar (80 µM) coadministered” value (C. parvum [2]; hollow fiber, 80 µM BKI1318 once daily plus 80 µM elacridar) was “approximately 1 log”.
In the case of CCOc1ccc2cc(-c3nn(CC4CCN(C)CC4)c4ncnc(N)c34)ccc2n1 [BKI1369], the “C. parvum reduction in mouse model of cryptosporidiosis” value (C. parvum [3]) is listed as > 2 log and the “Reduction of C. parvum levels over the course of the study” value (C. parvum [2]; hollow fiber model, polarized HCT-8 cells) is listed as > 3 orders of magnitude.
